According to paper PMC4082485, “The Rodin-Ohno hypothesis that two enzyme superfamilies descended from one ancestral gene: an unlikely scenario for the origins of translation that will not be dismissed” (Biology Direct, 2014):

Tests used:
HisRS Urzyme (HisRS 2) = molecular target: T1, HisRS Urzyme (HisRS 2) (Escherichia coli, UniProt P60906); assay: Michaelis-Menten steady-state kinetics of amino acid activation; assay type: biochemical; settings: ATP co-substrate; only kcat/KM free energies plotted
T1 construct: gene hisS; HisRS invariant core (Motifs 1 and 2, 122-residue base fragment); MBP fusion, TEV cleavage
T1 sequence (P60906 25-146): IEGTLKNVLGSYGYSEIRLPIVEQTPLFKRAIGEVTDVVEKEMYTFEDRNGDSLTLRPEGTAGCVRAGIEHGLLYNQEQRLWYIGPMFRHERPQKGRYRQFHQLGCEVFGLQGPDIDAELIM

[1] = molecular target: T2, TrpRS 46-residue peptide (46-mer, Class I ATP binding site) (Geobacillus stearothermophilus, UniProt P00953); assay: fluorescence titration of ATP with peptide (Mildvan assay)
T2 construct: gene trpS
T2 sequence (P00953 1-46 limits assumed): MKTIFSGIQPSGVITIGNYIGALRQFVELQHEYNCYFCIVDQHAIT

[2] = molecular target: T3, HisRS 46-residue peptide (46-mer, Class II ATP binding site) (Escherichia coli, UniProt P60906); assay: as above; settings: pH 4.5; range printed jointly for the TrpRS and HisRS 46-mers, not assigned to either
T3 construct: gene hisS
T3 sequence (P60906 101-146): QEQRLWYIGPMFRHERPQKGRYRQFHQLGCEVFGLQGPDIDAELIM

| SMILES | Michaelis-Menten steady-state kinetics of amino acid activation (HisRS Urzyme (HisRS 2)) | Kd [1] [µM] | Kd [2] [µM] |
| --- | --- | --- | --- |
| N[C@@H](Cc1cnc[nH]1)C(=O)O [histidine] | they both preferentially activate amino acids similar to the original substrate (i.e., Leu and His) | – | – |
| Nc1ncnc2c1ncn2[C@@H]1O[C@H](COP(=O)(O)OP(=O)(O)OP(=O)(O)O)[C@@H](O)[C@H]1O [ATP] | – | 10 to 65 | 10 to 65 |
